Laboratory results taken from US10221202B2, “Annelated phenoxyacetamides” (Boehringer Ingelheim International GmbH, priority 2015, dated 2019).

System: not listed separately
Test: Permeability in CALU-3 cells
Format: in vitro ADME
Details: human; apical-to-basal, CALU-3 monolayers, pH 7.4, 37° C., 10 μM compound
Procedure: Permeability measurements across polarized, confluent CALU-3 cell monolayers grown on permeable filter supports are used to provide information on the potential of a compound to pass the lung epithelium. Apparent permeability coefficients (Papp) of the compounds across the CALU-3 cell monolayers are measured (pH 7.4, 37° C.) in apical-to-basal (AB) and basal-to-apical (BA) transport direction. […] CALU-3 cells (1-2×10^5 cells/1 cm^2 area) are seeded on filter inserts (Costar transwell polycarbonate filters, 0.4 μm pore size) and cultured (for 10-12 days DMEM) until tight monolayers are formed. Compounds of interest are dissolved in appropriate solvent (DMSO, 10 mM stock solution). Stock solutions are diluted with HTP-4 buffer (128.13 mM NaCl, 5.36 mM KCl, 1 mM MgSO4, 1.8 mM CaCl2, 4.17 mM NaHCO3, 1.19 mM Na2HPO4×7H2O, 0.41 mM NaH2PO4×H2O, 15 mM HEPES, 20 mM glucose, 0.25% BSA, pH 7.4) to prepare the transport solutions (10 μM compound, final DMSO<=0.5%). The transport solution (TL) is applied to the apical or basolateral donor side for measuring A-B or B-A permeability (3 filter replicates), respectively. The receiver side contains the same buffer as the donor side. After 30 min of accommodation, samples are collected at the start t0=0 min and at the end of the experiment tn=90 min from the donor and at 0, 30, 60, and 90 min also from the receiver chamber. Volume removed is replenished by HTP-4 buffer. The compound concentration in the samples is measured by HPLC-MS/MS or scintillation counting. The permeability coefficient (Papp) and efflux ratio are calculated according to: Papp [cm/s]=(concentration receiver [nM]*volume receiver [mL]/time interval [sec])*(1/filter area)*(1/donor concentration [nM]).
Work on `CCn1c(CNC(=O)c2nc(Cl)cnc2N)[n+](CC2CCOCC2)c2ccc(OCC(=O)N(Cc3nc(C)ccc3[O-])C[C@H](C)O)cc21.O=C(O)C(F)(F)F.O=C(O)C(F)(F)F` [Example 1.03] yielded a Papp A→B at 90 min, 10 μM of 0.4 ×10⁻⁶ cm/s.
Work on `CC[n+]1c(CNC(=O)c2nc(Cl)cnc2N)n(CCO)c2cc(OCC(=O)NCc3ccc(P(C)(C)=O)cc3)ccc21.O=C([O-])C(F)(F)F` [Example 1.02] yielded a Papp A→B at 90 min, 10 μM of 0.6 ×10⁻⁶ cm/s.
`CCn1c(CNC(=O)c2nc(Cl)cnc2N)[n+](CC)c2ccc(OCC(=O)NCCCN)cc21.O=C(O)C(F)(F)F.O=C([O-])C(F)(F)F` [Example 2.01] showed a Papp A→B at 90 min, 10 μM of 0.2 ×10⁻⁶ cm/s.
`CC[n+]1c(CNC(=O)c2nc(Cl)cnc2N)n(C[C@@H]2CCCO2)c2cc(OCC(=O)N3CC[S+]([O-])CC3)ccc21.O=C([O-])C(F)(F)F` [Example 1.01] gave a Papp A→B at 90 min, 10 μM of 0.8 ×10⁻⁶ cm/s.
In the case of `CCn1c(CNC(=O)c2nc(Cl)cnc2N)[n+](CC)c2ccc(OCC(=O)NCCOCP(C)(C)=O)cc21.O=C([O-])C(F)(F)F` [Example 2.04], the Papp A→B at 90 min, 10 μM is reported as < 0.7 ×10⁻⁶ cm/s.
With `CCn1c(CNC(=O)c2nc(Cl)cnc2N)[n+](CC)c2ccc(OCC(=O)NCCN(C)C)cc21.O=C[O-]` [Example 2.06] the Papp A→B at 90 min, 10 μM was < 1 ×10⁻⁶ cm/s.
Compound `CCn1c(CNC(=O)c2nc(Cl)cnc2N)[n+](CC)c2ccc(OCC(=O)N(Cc3nc(C)ccc3O)C[C@H](C)O)cc21.O=C([O-])C(F)(F)F` [Example 2.05] has a Papp A→B at 90 min, 10 μM of 0.4 ×10⁻⁶ cm/s.

Same assay, conditions: human; basal-to-apical, CALU-3 monolayers, pH 7.4, 37° C., 10 μM compound
For `CCn1c(CNC(=O)c2nc(Cl)cnc2N)[n+](CC2CCOCC2)c2ccc(OCC(=O)N(Cc3nc(C)ccc3[O-])C[C@H](C)O)cc21.O=C(O)C(F)(F)F.O=C(O)C(F)(F)F` [Example 1.03], the Papp B→A at 90 min, 10 μM was 0.1 ×10⁻⁶ cm/s.
Work on `CC[n+]1c(CNC(=O)c2nc(Cl)cnc2N)n(CCO)c2cc(OCC(=O)NCc3ccc(P(C)(C)=O)cc3)ccc21.O=C([O-])C(F)(F)F` [Example 1.02] yielded a Papp B→A at 90 min, 10 μM of 0.3 ×10⁻⁶ cm/s.
Compound `CCn1c(CNC(=O)c2nc(Cl)cnc2N)[n+](CC)c2ccc(OCC(=O)NCCCN)cc21.O=C(O)C(F)(F)F.O=C([O-])C(F)(F)F` [Example 2.01] has a Papp B→A at 90 min, 10 μM of 0.5 ×10⁻⁶ cm/s.
`CC[n+]1c(CNC(=O)c2nc(Cl)cnc2N)n(C[C@@H]2CCCO2)c2cc(OCC(=O)N3CC[S+]([O-])CC3)ccc21.O=C([O-])C(F)(F)F` [Example 1.01] gave a Papp B→A at 90 min, 10 μM of 0.3 ×10⁻⁶ cm/s.
For `CCn1c(CNC(=O)c2nc(Cl)cnc2N)[n+](CC)c2ccc(OCC(=O)NCCOCP(C)(C)=O)cc21.O=C([O-])C(F)(F)F` [Example 2.04], the Papp B→A at 90 min, 10 μM was 0.4 ×10⁻⁶ cm/s.
In the case of `CCn1c(CNC(=O)c2nc(Cl)cnc2N)[n+](CC)c2ccc(OCC(=O)NCCN(C)C)cc21.O=C[O-]` [Example 2.06], the Papp B→A at 90 min, 10 μM is reported as 0.2 ×10⁻⁶ cm/s.
Work on `CCn1c(CNC(=O)c2nc(Cl)cnc2N)[n+](CC)c2ccc(OCC(=O)N(Cc3nc(C)ccc3O)C[C@H](C)O)cc21.O=C([O-])C(F)(F)F` [Example 2.05] yielded a Papp B→A at 90 min, 10 μM of 0.1 ×10⁻⁶ cm/s.

Biological target: T1, ENaC (Epithelial Sodium Channel) (Mus musculus, UniProt Q61180+Q9WU38+Q9WU39)
T1 construct: Mouse kidney M-1 cells were cultivated in DMEM; endogenous in cells; host or cells: mouse kidney M-1 cells (cortical collecting duct line), no transfection mentioned
T1 sequence (Q61180 1-699): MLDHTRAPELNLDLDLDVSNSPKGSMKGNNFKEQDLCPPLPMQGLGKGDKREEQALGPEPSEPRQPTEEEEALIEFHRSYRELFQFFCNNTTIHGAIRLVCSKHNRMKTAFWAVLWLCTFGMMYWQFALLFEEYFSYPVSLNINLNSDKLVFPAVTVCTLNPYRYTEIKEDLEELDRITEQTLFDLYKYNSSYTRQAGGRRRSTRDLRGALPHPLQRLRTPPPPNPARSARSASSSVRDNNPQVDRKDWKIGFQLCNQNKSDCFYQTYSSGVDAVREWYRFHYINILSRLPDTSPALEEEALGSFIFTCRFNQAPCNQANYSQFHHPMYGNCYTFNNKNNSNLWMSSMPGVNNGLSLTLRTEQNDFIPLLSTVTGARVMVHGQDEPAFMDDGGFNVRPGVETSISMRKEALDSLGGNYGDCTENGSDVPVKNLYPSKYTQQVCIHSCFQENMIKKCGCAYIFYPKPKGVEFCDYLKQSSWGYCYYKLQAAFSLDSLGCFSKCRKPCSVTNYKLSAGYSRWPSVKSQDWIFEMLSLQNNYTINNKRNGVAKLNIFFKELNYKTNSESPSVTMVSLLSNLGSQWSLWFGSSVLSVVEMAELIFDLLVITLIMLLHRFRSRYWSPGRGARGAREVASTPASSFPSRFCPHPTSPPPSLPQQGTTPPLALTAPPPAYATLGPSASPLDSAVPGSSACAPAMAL
T1 sequence (Q9WU38 1-638): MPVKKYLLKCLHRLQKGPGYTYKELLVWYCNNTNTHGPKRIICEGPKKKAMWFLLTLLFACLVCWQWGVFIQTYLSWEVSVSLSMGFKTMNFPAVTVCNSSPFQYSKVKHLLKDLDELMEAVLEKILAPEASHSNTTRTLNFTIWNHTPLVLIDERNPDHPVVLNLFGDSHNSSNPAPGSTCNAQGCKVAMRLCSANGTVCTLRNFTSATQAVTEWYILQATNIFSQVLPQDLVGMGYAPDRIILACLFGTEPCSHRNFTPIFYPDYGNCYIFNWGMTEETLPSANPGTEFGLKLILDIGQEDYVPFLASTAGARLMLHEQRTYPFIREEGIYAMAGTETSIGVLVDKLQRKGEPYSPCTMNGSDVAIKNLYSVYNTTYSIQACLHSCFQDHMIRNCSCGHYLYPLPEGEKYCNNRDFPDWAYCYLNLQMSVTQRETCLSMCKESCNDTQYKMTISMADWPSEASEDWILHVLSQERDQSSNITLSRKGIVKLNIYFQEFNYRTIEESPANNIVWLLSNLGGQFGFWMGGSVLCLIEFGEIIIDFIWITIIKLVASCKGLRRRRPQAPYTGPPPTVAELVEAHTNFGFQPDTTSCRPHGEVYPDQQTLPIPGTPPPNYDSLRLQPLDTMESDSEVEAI
T1 sequence (Q9WU39 1-655): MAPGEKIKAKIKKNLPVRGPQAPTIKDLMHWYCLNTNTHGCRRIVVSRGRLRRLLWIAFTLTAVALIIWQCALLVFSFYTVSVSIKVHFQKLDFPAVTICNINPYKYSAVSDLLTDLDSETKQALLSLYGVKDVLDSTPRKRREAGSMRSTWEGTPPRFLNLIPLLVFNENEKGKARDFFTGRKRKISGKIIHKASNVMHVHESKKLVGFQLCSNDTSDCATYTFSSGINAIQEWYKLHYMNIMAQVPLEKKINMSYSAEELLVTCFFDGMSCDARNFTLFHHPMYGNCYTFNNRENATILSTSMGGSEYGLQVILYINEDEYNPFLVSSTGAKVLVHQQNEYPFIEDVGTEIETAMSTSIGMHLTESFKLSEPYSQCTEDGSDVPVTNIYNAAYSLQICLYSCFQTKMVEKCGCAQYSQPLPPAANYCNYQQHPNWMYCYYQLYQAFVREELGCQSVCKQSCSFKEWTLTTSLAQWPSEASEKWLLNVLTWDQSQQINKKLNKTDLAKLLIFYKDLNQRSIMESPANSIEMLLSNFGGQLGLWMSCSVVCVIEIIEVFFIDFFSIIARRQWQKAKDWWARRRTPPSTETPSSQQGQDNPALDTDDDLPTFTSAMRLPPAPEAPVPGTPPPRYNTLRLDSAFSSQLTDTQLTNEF
Test: Ussing Chamber assay (short circuit current, amiloride sensitive I_SC)
Format: cell-based
Details: Mouse kidney M-1 cells, apical application, 37° C.
Procedure: The IC50 values of the example compounds given above were determined in the Ussing Chamber assay. Ussing Chamber: Mouse kidney M-1 cells were cultivated in DMEM containing 5% FCS and 5 μM dexamethasone for 10 to 12 days on polyester transwell filters. Filters were inserted into a teflon-coated well-plate which fit into the ussing chamber system. Prior to measurement the medium of M-1 cells was replaced with Caco-2 transport buffer (Invitrogen, Germany). During measurements, the Ussing chamber temperature was kept at 37° C. Short circuit currents (I_sc) were measured in the voltage-clamp mode with the software package Lab View for data acquisition and analysis. The transepithelial electrical resistance (TEER) was determined by the application of voltage steps of ±5 mV every 5 sec. Compounds were administered at a final concentration of 3 μM or at increasing concentrations (1-3-10 μM) to the apical solution. At the end of each experiment the amiloride sensitive I_SC was measured by adding 3 μM amiloride to the apical compartment. Results are expressed as inhibition in percent of the amiloride effect or as IC50.
In the case of `CCn1c(CNC(=O)c2nc(Cl)cnc2N)[n+](CC2CCOCC2)c2ccc(OCC(=O)N(Cc3nc(C)ccc3[O-])C[C@H](C)O)cc21.O=C(O)C(F)(F)F.O=C(O)C(F)(F)F` [Example 1.03], the IC50 is reported as 8 nM.
With `CC[n+]1c(CNC(=O)c2nc(Cl)cnc2N)n(CCO)c2cc(OCC(=O)NCc3ccc(P(C)(C)=O)cc3)ccc21.O=C([O-])C(F)(F)F` [Example 1.02] the IC50 was 10 nM.
`CC[n+]1c(CNC(=O)c2nc(Cl)cnc2N)n(C[C@@H]2CCCO2)c2cc(OCC(=O)N3CC[S+]([O-])CC3)ccc21.O=C([O-])C(F)(F)F` [Example 1.01] showed an IC50 of 10 nM.
Work on `CCn1c(CNC(=O)c2nc(Cl)cnc2N)[n+](CC)c2ccc(OCC(=O)N3CCC(N)CC3)cc21` [Example 2.03] yielded an IC50 of 1 nM.
Work on `CCn1c(CNC(=O)c2nc(Cl)cnc2N)[n+](CC)c2ccc(OCC(=O)NCCOCP(C)(C)=O)cc21.O=C([O-])C(F)(F)F` [Example 2.04] yielded an IC50 of 3 nM.
With `CCn1c(CNC(=O)c2nc(Cl)cnc2N)[n+](CC)c2ccc(OCC(=O)NCCN(C)C)cc21.O=C[O-]` [Example 2.06] the IC50 was 1 nM.
For `CCn1c(CNC(=O)c2nc(Cl)cnc2N)[n+](CC)c2ccc(OCC(=O)N(Cc3nc(C)ccc3O)C[C@H](C)O)cc21.O=C([O-])C(F)(F)F` [Example 2.05], the IC50 was 3 nM.
With `CCn1c(CNC(=O)c2nc(Cl)cnc2N)[n+](CC)c2ccc(OCC(=O)NCCNC)cc21` [Example 2.02] the IC50 was 2 nM.
